Values after ≈ are worked out from the molar mass of the structure shown.
Experiments:
[1] = Metabolic stability in mouse liver microsome assessed as compound remaining at 500 uM measured at 60 mins by LC-MS/MS method; type: ADME; conditions: liver microsomes, read-out: Stability
[2] = molecular target: T1, MAO-B (amine oxidase [flavin-containing] B) (Homo sapiens, UniProt P27338); experiment: Inhibition of human MAO-B assessed as residual activity at 10 uM relative to control; conditions: read-out: Activity
T1 sequence (P27338 whole entry): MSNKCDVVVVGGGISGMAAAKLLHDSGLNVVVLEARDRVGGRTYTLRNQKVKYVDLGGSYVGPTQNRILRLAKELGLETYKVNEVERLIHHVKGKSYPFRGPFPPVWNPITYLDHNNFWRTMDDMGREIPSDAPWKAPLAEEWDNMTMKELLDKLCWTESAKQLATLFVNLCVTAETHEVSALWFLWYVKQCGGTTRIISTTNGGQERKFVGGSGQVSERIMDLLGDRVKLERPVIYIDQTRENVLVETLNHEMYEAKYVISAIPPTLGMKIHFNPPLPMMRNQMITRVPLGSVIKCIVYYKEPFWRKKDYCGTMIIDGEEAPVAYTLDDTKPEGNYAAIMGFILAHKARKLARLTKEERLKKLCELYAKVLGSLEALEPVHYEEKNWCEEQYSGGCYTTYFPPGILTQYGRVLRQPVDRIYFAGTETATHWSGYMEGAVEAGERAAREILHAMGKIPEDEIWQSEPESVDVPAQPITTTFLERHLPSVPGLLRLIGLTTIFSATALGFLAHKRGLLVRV

[3] = Solubility of compound in PBS at pH 7.0 at 100 uM measured for 20 mins by LC-MS/MS analysis; type: physicochemical
[4] = Lipophilicity, log D of the compound at pH 7.4; type: physicochemical; conditions: buffer
[5] = Metabolic stability in mouse liver microsome assessed as compound remaining at 500 uM measured at 10 mins by LC-MS/MS method; type: ADME; conditions: liver microsomes, read-out: Stability
[6] = Metabolic stability in human liver microsome assessed as compound remaining at 500 uM measured at 10 mins by LC-MS/MS method; type: ADME; conditions: liver microsomes, read-out: Stability
[7] = Metabolic stability in human liver microsome assessed as compound remaining at 500 uM measured at 60 mins by LC-MS/MS method; type: ADME; conditions: liver microsomes, read-out: Stability
[8] = Apparent permeability of the compound in human Caco-2 cells at 25 uM measured after 2 hrs by LC-MS/MS analysis; type: ADME, cell-based
SH-SY5Y = experiment: Cytotoxicity against human SH-SY5Y cells assessed as inhibition of cell viability at 10 uM after 24 hrs by MTS assay relative to control; type: functional
[9] = molecular target: T2, Amine oxidase [flavin-containing] A (Homo sapiens, UniProt P21397); experiment: Inhibition of human MAO-A measure after 1 hr by microplate reader analysis
T2 sequence (P21397 whole entry): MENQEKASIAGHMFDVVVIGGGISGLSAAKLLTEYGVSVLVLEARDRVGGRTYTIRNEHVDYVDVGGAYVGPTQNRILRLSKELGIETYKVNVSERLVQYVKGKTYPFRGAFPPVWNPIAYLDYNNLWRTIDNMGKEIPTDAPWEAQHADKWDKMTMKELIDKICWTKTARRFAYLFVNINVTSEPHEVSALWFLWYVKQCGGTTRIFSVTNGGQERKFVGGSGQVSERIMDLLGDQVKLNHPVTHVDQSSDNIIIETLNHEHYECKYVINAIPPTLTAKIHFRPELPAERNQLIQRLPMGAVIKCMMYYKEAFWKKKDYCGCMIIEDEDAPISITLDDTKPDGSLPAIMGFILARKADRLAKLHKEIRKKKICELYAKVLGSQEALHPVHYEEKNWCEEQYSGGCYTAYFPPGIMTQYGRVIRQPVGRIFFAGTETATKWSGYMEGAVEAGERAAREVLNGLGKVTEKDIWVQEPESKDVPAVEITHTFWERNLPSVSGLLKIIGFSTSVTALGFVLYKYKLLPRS

[10] = molecular target: T3, Amine oxidase [flavin-containing] B (Homo sapiens, UniProt P27338); experiment: Inhibition of human MAO-B measure after 1 hr by microplate reader analysis
T3 sequence (P27338 whole entry): T1 sequence (P27338 whole entry)

Rattus norvegicus = species: Rattus norvegicus; experiment: Inhibition of rat brain stem MAO at 2 mM using serotonin as substrate incubated for 30 mins by fluorometric analysis relative to control; type: tissue-based; conditions: Brainstem

| Structure (SMILES) | remaining at 1 h [1] [%] | activity at 10 µM [2] [%] | solubility at 20 min, 100 µM [3] [µM] | logD [4] | remaining at 10 min [5] [%] | remaining at 10 min [6] [%] | remaining at 1 h [7] [%] | Papp at 2 h, 25 µM [8] [nm/s] | Activity (SH-SY5Y) [%] | IC50 [9] [µM] | IC50 [10] [µM] | inhibition (Rattus norvegicus) [%] |
| --- | --- | --- | --- | --- | --- | --- | --- | --- | --- | --- | --- | --- |
| COC(=O)c1ccccc1N1CCc2cc(OC)c(OC)cc2C1 | 0.1 | 103 | 12.7 (≈ 4.16 µg/mL) | 4.3 | 0.4 | 7.2 | 0.2 | 21 | – | – | – | – |
| COc1cc2c(cc1OC)CN(c1cc(F)cc(F)c1)CC2 | – | 24 | – | – | – | – | – | – | 97.3 | > 100 | 5.1 | – |
| COc1cc2c(cc1OC)CN(c1ccc(F)cc1)CC2 | 0.6 | 57 | 20.3 (≈ 5.83 µg/mL) | 4.5 | 2.5 | 56.8 | 56.9 | 204 | 104 | > 100 | 13.5 | – |
| COc1ccc(N2CCc3cc(OC)c(OC)cc3C2)cc1 | 1.7 | 95 | 3.7 (≈ 1.11 µg/mL) | 4.2 | 12.1 | 77.1 | 53.5 | 101 | – | – | – | – |
| COc1cc2c(cc1OC)CN(c1ccccn1)CC2 | 0.2 | 89 | 0.8 (≈ 0.216 µg/mL) | 3.7 | 9.9 | 70.8 | 17.7 | 388 | – | – | – | – |
| COc1cc2c(cc1OC)C(C)N(c1ccc(CO)cc1)CC2 (stereo not given) | 33.8 | – | 89.8 (≈ 28.1 µg/mL) | 3.4 | 83.4 | 91.3 | 78.4 | 344 | – | – | – | – |
| COc1cc2c(cc1OC)CN(c1ccc(C(=O)O)cc1)CC2 | 91.8 | 97 | ≥ 95 | 2.5 | 91.6 | 91.8 | 88.4 | 812 | – | – | – | – |
| COc1cc2c(cc1OC)C(C)N(c1ccc(F)cc1)CC2 (stereo not given) | 0.3 | – | 7.6 (≈ 2.29 µg/mL) | 4.8 | 1.2 | 71.1 | 23.2 | 83 | – | – | – | – |
| COc1cc2c(cc1OC)CN(c1cc(C(F)(F)F)cc(C(F)(F)F)c1)CC2 | 26.9 | 86 | < 0.5 | 5.7 | 83.1 | 98.7 | 62.2 | < 1 | – | – | – | – |
| COc1cc2c(cc1OC)CN(c1ccc(C=O)cc1)CC2 | 0.4 | 14 | 6.6 (≈ 1.96 µg/mL) | 3.7 | 12.6 | 61 | 9.2 | 28 | 99 | > 100 | 1.55 | – |
| COc1cc2c(cc1OC)[C@@H](C)NCC2 | – | – | – | – | – | – | – | – | – | – | – | 48 |
| COc1cc2c(cc1OC)CN(c1ccc(CO)cc1)CC2 | 64.4 | 79 | 93.9 (≈ 28.1 µg/mL) | 3.1 | 92.6 | 97.8 | 79.5 | 268 | – | – | – | – |
| COc1cc2c(cc1OC)C(C)N(c1ccc(C=O)cc1)CC2 (stereo not given) | 1 | – | 22.2 (≈ 6.91 µg/mL) | 4 | 15.5 | 66.1 | 18 | 74 | – | – | – | – |
| COc1cc2c(cc1OC)CN(c1ccccc1)CC2 | 0.4 | 81 | 19.1 (≈ 5.14 µg/mL) | 4.5 | 3.7 | 63.9 | 10.5 | 210 | – | – | – | – |
| COc1cc2c(cc1OC)CN(c1cccc(O)c1)CC2 | 0.5 | 107 | 89.6 (≈ 25.6 µg/mL) | 3.2 | 22.5 | 94.7 | 72.1 | 437 | – | – | – | – |
| COc1cc2c(cc1OC)CN(c1cccnc1)CC2 | 0.2 | 86 | 78.9 (≈ 21.3 µg/mL) | 3.7 | 9.5 | 66.9 | 15.5 | 395 | – | – | – | – |
